Data from US12331095B2, “Inducible T cell receptors and uses thereof” (MEDIGENE IMMUNOTHERAPIES GMBH, priority 2018, dated 2025).

Tested on: CD8+ PBL
Assay: Flow cytometry (CD3, BV6-5) for induction of iTCR-NY-ESO on the surface of CD8+ PBL
Type: cell-based
Conditions: any of the concentrations tried (data not shown)
Protocol: FIG. 9: CD8^+ PBL transduced with iTCR-NY-ESO (MHC-I restricted TCR) or CD8^+ PBL expressing wt-NY-ESO were induced overnight with 1, 5, 10 or 20 μM Endoxifen or were left uninduced (no Endoxifen). 24 h after induction T2 cells loaded with relevant peptide SLLMWITQC (SEQ ID NO: 12) or irrelevant peptide VLDGLDVLL (SEQ ID NO: 11) were added to the cultures. IFN-γ secretion was detected by standard IFN-γ ELISA performed with the culture supernatants 24 h after stimulation with T2 targets. Flow cytometry was performed 48 h after induction and cells were assessed for BFP (transductants), CD3 and BV6-5. Exemplary plots shown are iTCR-NY-ESO transduced CD8^+ PBL without induction or with 20 μM Endoxifen. Plots were generated using the analysis tool FlowJo V10. Graph was plotted using graphPad Prism 7.
PBL from a healthy donor was enriched for CD8^+ cells using a commercial cell isolation kit (CD8+untouched) and transduced with the lentiviral vector carrying the iTCR-NY-ESO cassette or with the lentiviral vector carrying wt-NY-ESO as positive control. […] CD8^+ cells carrying either iTCR-NY-ESO were induced overnight with 20 μM Endoxifen or left untreated. Cells were then stained for CD3 (CD3-PECy7, SK7, 557851, BD) and the specific V-beta family BV6-5 (antibody: TRBV6-5-PE, IMMU 222, IM2292, Beckman Coulter).

CCC(=C(c1ccc(O)cc1)c1ccc(OCCN(C)C)cc1)c1ccccc1 [4-Hydroxytamoxifen, 4-(1-[4-(Dimethylaminoethoxy)phenyl]-2-phenyl-1-butenyl)phenol]
induction of iTCR-NY-ESO in PBL: did not induce iTCR-NY-ESO in PBL in any of the concentrations tried
